Key:
[1] = tested on: Blumeria graminis f sp. tritici; test: Blumeria test (wheat)/protective; format: in vivo; conditions: protective, 1000 ppm active compound, evaluation 7 days after inoculation
Protocol: Blumeria Test (Wheat)/Protective [table] To produce a suitable preparation of active compound, 1 part by weight of active compound is mixed with the stated amounts of solvent and emulsifier, and the concentrate is diluted with water to the desired concentration. To test for protective activity, young plants are sprayed with the active compound preparation at the stated application rate. After the spray coating has dried on, the plants are dusted with spores of Blumeria graminis f sp. tritici.

Venturia inaegualis = test: Venturia test (apple)/protective; format: in vivo; conditions: protective, 100 ppm active compound, evaluation 10 days after inoculation
Protocol: Venturia Test (Apple)/Protective [table] To produce a suitable preparation of active compound, 1 part by weight of active compound is mixed with the stated amounts of solvent and emulsifier, and the concentrate is diluted with water to the desired concentration. To test for protective activity, young plants are sprayed with the active compound preparation at the stated application rate. After the spray coating has dried on, the plants are inoculated with an aqueous conidia suspension of the apple scab pathogen Venturia inaegualis and then remain in an incubation cabin at about […] and 100% relative atmospheric humidity for 1 day. The plants are then placed in the greenhouse at about 21° C. and a relative atmospheric humidity of about 90%.

Phytophthora infestans = format: in vivo; conditions: protective, 100 ppm active compound, evaluation 3 days after inoculation
Alternaria solani = test: Alternaria test (tomato)/protective; format: in vivo; conditions: protective, 500 ppm active compound, evaluation 7 days after inoculation
Protocol: Alternaria Test (Tomato)/Protective [table] To produce a suitable preparation of active compound, 1 part by weight of active compound is mixed with the stated amounts of solvent and emulsifier, and the concentrate is diluted with water to the desired concentration. To test for protective activity, young tomato plants are sprayed with the active compound preparation at the stated application rate. 1 day after the treatment, the plants are inoculated with a spore suspension of Alternaria solani and then remain at 100% relative humidity and 20° C. for 24 h. The plants then remain at 96% relative atmospheric humidity and a temperature of 20° C.

Plasmopara viticola = test: Plasmopara test (grapevine)/protective; format: in vivo; conditions: protective, 100 ppm active compound, evaluation 6 days after inoculation
Protocol: Plasmopara Test (Grapevine)/Protective [table] To produce a suitable preparation of active compound, 1 part by weight of active compound is mixed with the stated amounts of solvent and emulsifier, and the concentrate is diluted with water to the desired concentration. To test for protective activity, young plants are sprayed with the active compound preparation at the stated application rate. After the spray coating has dried on, the plants are inoculated with an aqueous spore suspension of Plasmopara viticola and then remain in an incubation cabin at about 20° C. and 100% relative atmospheric humidity for 1 day. The plants are then placed in a greenhouse at about 21° C. and about 90% atmospheric humidity for 4 days. The plants are then moistened and placed in an incubation cabin for 1 day.

[2] = log P by HPLC on reversed-phase columns (C 18), EEC directive 79/831 Annex V.A8; format: physicochemical; conditions: pH 2.7
Protocol: The log P values were measured according to EEC directive 79/831 Annex V.A8 by HPLC (High Performance Liquid Chromatography) on reversed-phase columns (C 18), using the method below:
The determination was carried out in the acidic range at pH 2.7 using the mobile phases 0.1% aqueous formic acid and acetonitrile; linear gradient from 10% acetonitrile to 95% acetonitrile.

[3] = tested on: caterpillars of the armyworm (Spodoptera frugiperda); test: Spodoptera frugiperda test (spray treatment); format: in vivo; conditions: maize leaf discs, application rate 500 g/ha
Protocol: Example J Spodoptera Frugiperda Test (Spray Treatment) [table] To produce a suitable preparation of active compound, 1 part by weight of active compound is mixed with the stated amounts of solvent and emulsifier, and the concentrate is diluted with emulsifier-containing water to the desired concentration. Discs of maize leaves (Zea mays) are sprayed with an active compound preparation of the desired concentration and, after drying, populated with caterpillars of the armyworm (Spodoptera frugiperda). After the desired period of time, the effect in % is determined. 100% means that all caterpillars have been killed; 0% means that none of the caterpillars have been killed.

| SMILES | log P [2] | activity (caterpillars killed) [3] | also measured |
| --- | --- | --- | --- |
| CC1=NOC(=O)/C1=C\c1ccco1 [A-8] |  |  | efficacy [1]: 29%; efficacy (Venturia inaegualis): 6%; efficacy (Phytophthora infestans): 0%; efficacy (Alternaria solani): 0%; efficacy (Plasmopara viticola): 28% |
| COc1ccc(C2=NOC(=O)C2=Cc2ccc(Cl)s2)cc1 [I-43] | 3.70 | 80% |  |
| O=C1ON=C(c2ccc(OC(F)(F)F)cc2)C1=Cc1cccs1 [I-55] | 3.80 | 80% |  |
| O=C1ON=C(c2ccc(C(F)(F)F)cc2)C1=Cc1cccs1 [I-56] | 3.68 | 80% |  |
| CCOc1ccc(C2=NOC(=O)C2=Cc2cccs2)cc1 [I-58] | 3.41 | 80% |  |
| CC(C)Oc1ccc(C2=NOC(=O)C2=Cc2cccs2)cc1 [I-79] | 3.73 | 80% |  |
| Cc1ccc(C2=NOC(=O)C2=Cc2cccs2)cc1 [U-2] | 3.32 | 80% |  |
| COc1ccc(C2=NOC(=O)C2=Cc2ccc(C)s2)cc1 [U-9] | 3.28 | 80% |  |
| Cc1ccc(C2=NOC(=O)C2=Cc2ccc(C)s2)cc1 [U-10] | 3.67 | 80% |  |
| COc1cccc(C2=NOC(=O)C2=Cc2ccc(C)s2)c1 [U-12] | 3.34 | 80% |  |
| COc1ccc(C2=NOC(=O)C2=Cc2cccs2)cc1 [U-37] | 2.95 | 80% |  |
| COc1ccc(C2=NOC(=O)/C2=C\c2cccs2)cc1 [U-38] | 2.95 | 80% |  |
| COc1ccccc1C1=NOC(=O)/C1=C\c1cccs1 [U-39] | 2.75 | 80% |  |
